Experimental data from patent US10954235B2, “Crystalline forms of valbenazine salts” (Sandoz AG, priority 2017, dated 2021).

Experiment: Differential scanning calorimetry (DSC), thermal stability
Assay type: physicochemical
Details: heating rate 10 K/min; judged from first endotherm
Experimental: Differential scanning calorimetry (DSC) was performed with a DSC 7 (Perkin-Elmer, Norwalk, Conn., USA) using a Pyris 2.0 software. 4.7307±0.0005 mg sample (using a UM3 ultramicrobalance, Mettler, Greifensee, CH) were weighed into Al-Pans (25 microliter) and sealed with a cover, which was perforated by a needle. The sample was heated at a rate of 10 K/min. Dry nitrogen was used as the purge gas (purge rate: 20 mL/min). Differential scanning calorimetry (DSC) was performed with a DSC 7 (Perkin-Elmer, Norwalk, Conn., USA) using a Pyris 2.0 software. 7.115±0.0005 mg sample (using a UM3 ultramicrobalance, Mettler, Greifensee, CH) were weighed into Al-Pans (25 microliter) and sealed with a cover, which was perforated by a needle. The sample was heated at a rate of 10 K/min. Dry nitrogen was used as the purge gas (purge rate: 20 mL/min).

stability against temperature stress (DSC): very stable against temperature stress
SMILES: COc1cc2c(cc1OC)[C@H]1C[C@@H](OC(=O)[C@@H](N)C(C)C)[C@H](CC(C)C)CN1CC2 [Example 1, ((S)-(2R,3R,11bR)-3-isobutyl-9,10-dimethoxy-2,3,4,6,7,11b-hexahydro-1H-pyrido[2,1-a]isoquinolin-2-yl 2-amino-3-methylbutanoate) ditosylate]
